Laboratory results as given in US8445430B2, “Cyclic carboxamide compounds and analogues thereof as of hepatitis C virus” (Achillion Pharmaceuticals, Inc., priority 2008, dated 2013).
Read-outs that look alike come from different tables or passages of the source.

Test system: HCV replicon in Huh-7 cells
Test: HCV replicon assay (NPT ELISA) for inhibition of HCV replication
Type: cell-based
Conditions: Hepatitis C virus, Huh-7, 72 h, HCV replicon-containing Huh-7 cells, three days incubation
Procedure: Compounds claimed herein are tested for the ability to inhibit viral replication of the Hepatitis C replicon in cultured cells in which the HCV replicon construct has been incorporated. The HCV replicon system was described by Bartenschlager, et. al (Science, 285, pp. 110-113 (1999)). The replicon system is predictive of in vivo anti-HCV activity; compounds that are active in humans uniformly evidence activity in the replicon assay.
In this assay HCV replicon containing cells are treated with different concentrations of the test compound to ascertain the ability of the test compound to suppress replication of the HCV replicon. As a positive control, HCV replicon-containing cells are treated with different concentrations of interferon alpha, a known inhibitor of HCV replication. The replicon assay system includes Neomycin Phosphotransferase (NPT) as a component of the replicon itself in order to detect the transcription of replicon gene products in the host cell. Cells in which the HCV replicon is actively replicating have high levels of NPT; the level of NPT is proportional to HCV replication. […] The NPT level of each sample is measured using a captured ELISA.
A protocol for testing compounds for the ability to inhibit viral replication of the Hepatitis C replicon cultured cells in which the replicon construct has been incorporated, follows.
The HCV replicon contains, 5′-3′, the HCV-IRES, the neomycin phosphotransferase (neo) gene, the IRES of encephalomyocarditis virus, which directs translation of HCV sequences NS3 to NS5B, and the 3′-NTR. The sequence of the HCV replicon has been deposited in GenBank (Accession no. AJ242652).
The replicon is transfected into Huh-7 cells using standard methods such as electroporation.
The equipment and materials include, but are not limited to, Huh-7 HCV replicon-containing cells, maintenance media (DMEM (Dulbecco's modified Eagle media) supplemented with 10% FBS, L-glutamine, non-essential amino acids, penicillin (100 units/ml), streptomycin (100 micrograms/ml), and 500 micrograms/ml of Geneticin (G418), screening media (DMEM supplemented with 10% FBS, L-glutamine, non-essential amino acids, penicillin (100 units/ml) and streptomycin (100 micrograms/ml)), 96 well tissue culture plates (flat bottom), 96 well plates (U bottom for drug dilution), Interferon alpha for positive control, fixation reagent (such as methanol:acetone), primary antibody (rabbit anti-NPTII), secondary antibody: Eu-N11, and enhancement solution.
HCV replicon-containing cells support high levels of viral RNA replicon replication when their density is suitable. Over-confluency causes decreased viral RNA replication. Therefore, cells must be kept growing in log phase in the presence of 500 micrograms/ml of G418. Generally, cells should be passed twice a week at 1: 4-6 dilution. Cell maintenance is conducted as follows:
HCV replicon-containing cells are examined under a microscope to ensure that cells growing well. Cells are rinsed once with PBS and 2 ml trypsin is added. The cell/trypsin mixture is incubated at 37° C. in a CO2 incubator for 3-5 minutes. After incubation 10 ml of complete media is added to stop the trypsinization reaction. Cells are blown gently, put into a 15 ml tube, and spun at 1200 rpm for 4 minutes. The trypsin/medium solution is removed. Medium (5 ml) is added and the cells are mixed carefully. The cells are counted.
The cells are then seeded onto 96-well plates at a density of 6000-7500 cells/100 microliters/well (6-7.5×10^5 cells/10 ml/plate). The plates are then incubated at 37° C. in a 5% CO2 incubator.
Cells are examined under a microscope approximated 24 hours after seeding and prior to adding drugs. If counting and dilution were performed correctly, cells are 60-70% confluent and nearly all cells should attach and spread evenly in the well.
HCV replicon-containing cells are rinsed with once PBS once; 2 mls of trypsin are then added. Cells are incubated at 37° C. in a 5% CO2 incubator for 3-5 minutes. […]

Structure (SMILES) | EC50 (read-out: EC50) [µM] | EC50 [µM]
COc1ccc2c(O[C@@H]3C[C@H]4C(=O)N[C@]5(C(=O)NS(=O)(=O)C6CC6)C[C@H]5/C=C\CCCC(=O)N(C)[C@@H](C(C)(C)C)C(=O)N4C3)cc(-c3ccccc3)nc2c1 [Compound 10, (2R,6S,13aS,14aR,16aS,Z)-6-tert-butyl-N-(cyclopropylsulfonyl)-2-(7-methoxy-2-phenylquinolin-4-yloxy)-7-methyl-5,8,16-trioxo-1,2,3,5,6,7,8,9,10,11,13a,14,14a,15,16,16a-hexadecahydrocyclopropa[n]pyrrolo[2,1-c] [1,4,7]triazacyclopentadecine-14a-carboxamide] | > 10 | –
COc1ccc2c(O[C@@H]3C[C@H]4C(=O)N[C@@]5(C(=O)NS(=O)(=O)C6CC6)C[C@@H]5/C=C\CCCC(=O)N(C)[C@@H](C(C)(C)C)C(=O)N4C3)cc(-c3ccccc3)nc2c1 [Compound 11, (2R,6S,13aR,14aS,16aS,Z)-6-tert-butyl-N-(cyclopropylsulfonyl)-2-(7-methoxy-2-phenylquinolin-4-yloxy)-7-methyl-5,8,16-trioxo-1,2,3,5,6,7,8,9,10,11,13a,14,14a,15,16,16a-hexadecahydrocyclopropa[n]pyrrolo[2,1-c] [1,4,7]triazacyclopentadecine-14a-carboxamide] | > 10 | ≤ 10
COc1ccc2c(O[C@@H]3C[C@H]4C(=O)N[C@]5(C(=O)NS(=O)(=O)C6CC6)C[C@H]5/C=C\CCCC(=O)N[C@@H](C(C)(C)C)C(=O)N4C3)cc(-c3nc(C(C)C)cs3)nc2c1C [Compound 19, (2R,6S,14aR,16aS,Z)-6-tert-butyl-N-(cyclopropylsulfonyl)-2-(2-(4-isopropyithiazol-2-yl)-7-methoxy-8-methylquinolin-4-yloxy)-5,8,16-trioxo-1,2,3,5,6,7,8,9,10,11,13a,14,14a,15,16,16a-hexadecahydrocyclopropa[n]pyrrolo[2,1-c] [1,4,7]triazacyclopentadecine-14a-carboxamide] | 1 to 10 | –
COc1ccc2c(O[C@@H]3C[C@H]4C(=O)N[C@]5(C(=O)NS(=O)(=O)C6CC6)C[C@H]5/C=C\CCCC(=O)N[C@@H](CC(=O)OC(C)(C)C)C(=O)N4C3)cc(-c3nc(C(C)C)cs3)nc2c1C [Compound 16, tert-butyl 2-((2R,6S,14aR,16aS,Z)-14a-(cyclopropylsulfonylcarbamoyl)-2-(2-(4-isopropyithiazol-2-yl)-7-methoxy-8-methylquinolin-4-yloxy)-5,8,16-trioxo-1,2,3,5,6,7,8,9,10,11,13a,14,14a,15,16,16a-hexadecahydrocyclopropa[n]pyrrolo [2,1-c][1,4,7]triazacyclopentadecin-6-yl)acetate] | < 1 | ≤ 10
COC(=O)CC1NC(=O)CCC/C=C\[C@@H]2C[C@@]2(C(=O)NS(=O)(=O)C2CC2)NC(=O)[C@@H]2C[C@@H](Oc3cc(-c4ccccc4)nc4cc(OC)ccc34)CN2C1=O (stereo partly drawn) [Compound 13, methyl 2-((2R,14aR,16aS,Z)-14a-(cyclopropylsulfonylcarbamoyl)-2-(7-methoxy-2-phenylquinolin-4-yloxy)-5,8,16-trioxo-1,2,3,5,6,7,8,9,10,11,13a,14,14a,15,16,16a-hexadecahydrocyclopropa[n]pyrrolo[2,1-c] [1,4,7]triazacyclopentadecin-6-yl)acetate] | 1 to 10 | –
COc1ccc2c(O[C@@H]3C[C@H]4C(=O)N[C@@]5(C(=O)NS(=O)(=O)C6CC6)C[C@@H]5/C=C\CCCC(=O)N[C@H](C(C)(C)C)C(=O)N4C3)cc(-c3ccccc3)nc2c1 [Compound 9, (2R,6R,13aR,14aS,16aS,Z)-6-tert-butyl-N-(cyclopropylsulfonyl)-2-(7-methoxy-2-phenylquinolin-4-yloxy)-5,8,16-trioxo-1,2,3,5,6,7,8,9,10,11,13a,14,14a,15,16,16a-hexadecahydrocyclopropa[n]pyrrolo[2,1-c] [1,4,7]triazacyclopentadecine-14a-carboxamide] | < 1 | –
COC(=O)C[C@@H]1NC(=O)CCC/C=C\[C@@H]2C[C@@]2(C(=O)NS(=O)(=O)C2CC2)NC(=O)[C@@H]2C[C@@H](Oc3cc(-c4ccccc4)nc4cc(OC)ccc34)CN2C1=O [Compound 12, methyl 2-((2R,6S,14aR,16aS,Z)-14a-(cyclopropylsulfonylcarbamoyl)-2-(7-methoxy-2-phenylquinolin-4-yloxy)-5,8,16-trioxo-1,2,3,5,6,7,8,9,10,11,13a,14,14a,15,16,16a-hexadecahydrocyclopropa[n]pyrrolo[2,1-c] [1,4,7]triazacyclopentadecin-6-yl)acetate] | 1 to 10 | –
COc1ccc2c(O[C@@H]3C[C@H]4C(=O)N[C@]5(C(=O)NS(=O)(=O)C6CC6)C[C@H]5/C=C\CCCC(=O)N[C@@H](CC(=O)N5CCCC(F)(F)C5)C(=O)N4C3)cc(-c3nc(C(C)C)cs3)nc2c1C [Compound 17, (2R,6S,14aR,16aS,Z)-N-(cyclopropylsulfonyl)-6-(2-(3,3-difluoropiperidin-1-yl)-2-oxoethyl)-2-(2-(4-isopropylthiazol-2-yl)-7-methoxy-8-methylquinolin-4-yloxy)-5,8,16-trioxo-1,2,3,5,6,7,8,9,10,11,13a,14,14a, 15,16,16a-hexadecahydrocyclopropa[n] pyrrolo[2,1-c][1,4,7]triazacyclopenta-decine-14a-carboxamide] | < 1 | –
C=CCCCC(=O)N[C@@H](C(=O)N1C[C@H](Oc2cc(-c3ccccc3)nc3cc(OC)ccc23)C[C@H]1C(=O)N[C@]1(C(=O)NS(=O)(=O)C2CC2)C[C@H]1C=C)C(C)(C)C [Compound 7, (2S,4R)-N-((1R,2S)-1-(cyclopropylsulfonylcarbamoyl)-2-vinylcyclopropyl)-1-((R)-2-hex-5-enamido-3,3-dimethylbutanoyl)-4-(7-methoxy-2-phenylquinolin-4-yloxy)pyrrolidine-2-carboxamide] | 1 to 10 | –
C=CCCCC(=O)N[C@@H](C(=O)N1C[C@H](Oc2cc(-c3ccccc3)nc3cc(OC)ccc23)C[C@H]1C(=O)N[C@@]1(C(=O)NS(=O)(=O)C2CC2)C[C@@H]1C=C)C(C)(C)C [Compound 8, (2S,4R)-N-((1S,2R)-1-(cyclopropylsulfonylcarbamoyl)-2-vinylcyclopropyl)-1-((R)-2-hex-5-enamido-3,3-dimethylbutanoyl)-4-(7-methoxy-2-phenylquinolin-4-yloxy)pyrrolidine-2-carboxamide] | 1 to 10 | –
COc1ccc2c(O[C@@H]3C[C@H]4C(=O)N[C@]5(C(=O)NS(=O)(=O)C6CC6)C[C@H]5/C=C\CCCC(=O)N(C)CC(=O)N4C3)cc(-c3nc(C(C)C)cs3)nc2c1C [Compound 18, (2R,14aR,16aS,Z)-N-(cyclopropylsulfonyl)-2-(2-(4-isopropyithiazol-2-yl)-7-methoxy-8-methylquinolin-4-yloxy)-7-methyl-5,8,16-trioxo-1,2,3,5,6,7,8,9,10,11,13a,14,14a,15,16,16a-hexadecahydrocyclopropa[n]pyrrolo[2,1-c] [1,4,7]triazacyclopentadecine-14a-carboxamide] | < 1 | –
CCOC(=O)[C@]12C[C@H]1/C=C\CCCC(=O)N[C@@H](C(C)(C)C)C(=O)N1C[C@H](Oc3cc(-c4ccccc4)nc4cc(OC)ccc34)C[C@H]1C(=O)N2 [Compound 2, (2R,6S,13aS,14aS,16aS,Z)-ethyl 6-tert-butyl-2-(7-methoxy-2-phenylquinolin-4-yloxy)-5,8,16-trioxo-1,2,3,5,6,7,8,9,10,11,13a,14,14a,15,16,16a-hexadecahydrocyclopropa[n]pyrrolo[2,1-c] [1,4,7]triazacyclopentadecine-14a-carboxylate] | > 10 | –
